Assay results from patent US7049461B1, “Treatment of leukemia” (University of Central Florida, priority 2001, dated 2006).

Experiments:
[1] = system: human leukemia cancer cells (ATCC JURK); experiment: Cytotoxicity assay: growth inhibition of Jurkat cells (MTS/PMS); format: cell-based; conditions: approximately 48 hours, test concentration not given
Procedure: The activity against leukemia cancer cells of the compounds (as earlier reported) was realized by the following procedure which determines the inhibitory effect of test samples on the growth of human leukemia cancer cells (ATCC JURK). The Jurkat cells are grown in RPMI 1640 media+10% Fetal bovine serum+1% Antibiotic/Antimycotic+1% of HEPES Buffer (1M)+1% Sodium Purivate (100 mM)+2.5% D-(+) Glucose Solution for approximately 48 hours at 37° C./5% CO2 […] compound.
Growth/Non-Growth of the cells (e.g., cell density) is determined using Promega's MTS/PMS assay system. MTS (3-(4,5-dimethylthiazol-2-yl)-5-(3-carboxymethoxyphenyl)-2-(4-sulfophenyl)-2H-tetrazolium, inner salt) is an aqueous compound that is reduced to soluble formazan by the presence of NADH formed by dehydrogenases present within the Jurkat cells. The absorbance of the formazan can be measured at 490 nm and is directly proportional to the number of living cells present in the culture. PMS (Phenazine Methosulfate) is added an electron coupling reagent and greatly increases the rate of reduction. […]
In order to establish the accuracy of this assay a Positive Control consisting of 50 μM Methotrexate should […] the net absorbance to less than 90% of the Negative Control (Jurkat cells are somewhat resistant to methotrexate) is utilized.

[2] = Solubility in organic solvents; format: physicochemical
Stability in solutions = format: physicochemical; conditions: solution heated or stored for a long time; forms OF-12
mice = conditions: cited from earlier work

Solubility ([2]; in DMSO, DMFA, dichloroethane, acetonitrile)	Solubility ([2]; in hexane)	SMILES	percent activity against human leukemia [1] [%]	Stability in solutions (Stability in solutions)	toxicity in mice LD50 (mice) [mg/kg]
–	–	CCOc1ccc(C(Cl)=CC(=NN=C2c3ccccc3-c3ccccc32)C(=O)OC)cc1 [3F-19, 4-Chloro-4-(4-ethoxy-phenyl)-2-(fluoren-9-ylidene-hydrazono)-but-3-enoic acid methyl ester]	100	–	–
highly soluble	insoluble	CCOc1ccc(C(=O)CC(O)(NN=C2c3ccccc3-c3ccccc32)C(=O)OC)cc1 (stereo not shown) [OF-13, 4-(4-Ethoxy-phenyl)-2-(N′-fluoren-9-ylidene-hydrazino)-2-hydroxy-4-oxo-butyric acid methyl ester]	97	not stable in solutions and decomposes quickly	–
–	–	Nc1ccn([C@@H]2O[C@H](CO)[C@@H](O)[C@@H]2O)c(=O)n1 [cytarabine]	–	–	826
–	–	COc1cccc2c1C(=O)c1c(O)c3c(c(O)c1C2=O)C[C@@](O)(C(C)=O)C[C@@H]3O[C@H]1C[C@H](N)[C@H](O)[C@H](C)O1 [daunorubicin]	–	–	26
